Assay results: patent US11149037B2, “Pyrazole MAGL inhibitors” (H. Lundbeck A/S, priority 2017, dated 2021)

Tests used:
[1] = target: MAGL (Homo sapiens (Human), UniProt Q99685); experiment: In vitro competitive activity-based protein profiling, human proteomes (prefrontal cortex or PC3 cell membrane fractions); type: biochemical; conditions: human proteome; for inhibition at 10 µM: read-out: MAGL % inh. (human) @ 10 μM; for inhibition at 1 µM: read-out: MAGL % inh. 1 μM (human)
Description: (§1) In Vitro Competitive Activity-Based Protein Profiling.
(§2) Proteomes (mouse brain membrane fraction or cell lysates for mouse assays; human prefrontal cortex or PC3 cell membrane fractions for human assays) (50 μL, 1.0 or 2.0 mg/mL total protein concentration) were preincubated with varying concentrations of inhibitors at 37° C. After 30 min, FP-Rh or JW912 or HT-01 (1.0 μL, 50 μM in DMSO) was added and the mixture was incubated for another 30 min at 37° C. Reactions were quenched with SDS loading buffer (15 μL-4×) and run on SDS-PAGE. Following gel imaging, serine hydrolase activity was determined by measuring fluorescent intensity of gel bands corresponding to MAGL and FAAH using ImageJ 1.43u software.

[2] = target: MAGL (Mus musculus (Mouse), UniProt O35678); experiment: In vitro competitive activity-based protein profiling, mouse proteomes (brain membrane fraction or cell lysates); type: biochemical; conditions: mouse proteome, read-out: MAGL % inh. 1 μM (mouse)
Chain of MAGL (Mus musculus (Mouse), UniProt O35678) (O35678 whole entry): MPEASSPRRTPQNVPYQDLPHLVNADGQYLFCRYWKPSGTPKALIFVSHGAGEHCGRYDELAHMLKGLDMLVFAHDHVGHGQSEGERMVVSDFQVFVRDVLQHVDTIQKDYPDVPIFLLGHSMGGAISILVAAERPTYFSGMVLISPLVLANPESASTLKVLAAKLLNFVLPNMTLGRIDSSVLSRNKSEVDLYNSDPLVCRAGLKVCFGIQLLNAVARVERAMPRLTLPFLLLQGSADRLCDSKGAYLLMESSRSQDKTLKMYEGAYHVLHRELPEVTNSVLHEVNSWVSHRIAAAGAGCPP
Description: as §1, §2

Chain of MAGL (Homo sapiens (Human), UniProt Q99685) (Q99685 whole entry): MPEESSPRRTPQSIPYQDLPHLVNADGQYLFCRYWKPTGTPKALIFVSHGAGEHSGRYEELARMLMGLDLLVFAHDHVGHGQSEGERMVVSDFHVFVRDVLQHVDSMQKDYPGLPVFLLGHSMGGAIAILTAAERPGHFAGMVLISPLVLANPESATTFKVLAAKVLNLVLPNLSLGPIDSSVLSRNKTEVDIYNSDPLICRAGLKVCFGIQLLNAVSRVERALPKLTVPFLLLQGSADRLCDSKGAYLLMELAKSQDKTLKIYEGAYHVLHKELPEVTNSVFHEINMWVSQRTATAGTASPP

| Structure (SMILES) | inhibition at 1 µM [1] [%] | also measured |
| --- | --- | --- |
| CS(=O)(=O)Nc1ccn(C(=O)N2CCN(Cc3ccc(Cl)c(N4CC5CNCC5C4)c3)CC2)n1 (centres unmarked) [Example 152, N-(1-(4-(4-Chloro-3-(hexahydropyrrolo[3,4-c]pyrrol-2(1H)-yl)benzyl)piperazine-1-carbonyl)-1H-pyrazol-3-yl)methanesulfonamide] | – | inhibition at 10 µM [1]: > 75% |
| CS(=O)(=O)Nc1ccn(C(=O)N2CCN(Cc3cccc(C(F)(F)F)c3Cl)CC2)n1 [Example 219, N-(1-(4-(2-Chloro-3-(trifluoromethyl)benzyl)piperazine-1-carbonyl)-1H-pyrazol-3-yl)methane-sulfonamide] | > 75 | – |
| CS(=O)(=O)Nc1ccn(C(=O)N2CCC3(CCCN3Cc3ccc(Cl)cc3N3CC4COCC4C3)CC2)n1 (centres unmarked) [Example 205, N-(1-(1-(4-Chloro-2-(tetrahydro-1H-furo[3,4-c]pyrrol-5(3H)-yl)benzyl)-1,8-diazaspiro[4.5]decane-8-carbonyl)-1H-pyrazol-3-yl)methanesulfonamide] | > 75 | – |
| CC(=O)Nc1ccn(C(=O)N2CCN(Cc3ccc(-c4ccccc4)cc3C)C[C@H]2C)n1 [Example 208, (R)-N-(1-(2-Methyl-4-((3-methyl-[1,1′-biphenyl]-4-yl)methyl)piperazine-1-carbonyl)-1H-pyrazol-3-yl)acetamide] | > 75 | IC50 [1]: < 0.1 µM |
| CS(=O)(=O)Nc1ccn(C(=O)N2CCC(OCc3ccc(Cl)c(N4CCC(F)CC4)c3)CC2)n1 [Example 209, N-(1-(4-((4-Chloro-3-(4-fluoropiperidin-1-yl)benzyl)oxy)piperidine-1-carbonyl)-1H-pyrazol-3-yl)methanesulfonamide] | > 75 | inhibition at 1 µM [2]: > 75% |
| C[C@@H]1CCCN1c1cc(CN2CCN(C(=O)n3ccc(NS(C)(=O)=O)n3)C[C@@H]2C)ccc1Cl [Example 199, N-(1-((S)-4-(4-Chloro-3-((R)-2-methylpyrrolidin-1-yl)benzyl)-3-methylpiperazine-1-carbonyl)-1H-pyrazol-3-yl)methanesulfonamide] | > 75 | inhibition at 1 µM [2]: > 75% |
| CS(=O)(=O)Nc1ccn(C(=O)N2CCN(Cc3ccc(OC(F)F)c(OCC4CC4)c3)CC2)n1 [Example 221, N-(1-(4-(3-(Cyclopropyl-methoxy)-4-(difluoro-methoxy)benzyl)piperazine-1-carbonyl)-1H-pyrazol-3-yl)methane-sulfonamide] | > 75 | – |
| C[C@H]1CN(C(=O)n2ccc(NS(C)(=O)=O)n2)CCN1Cc1ccc(Cl)c(N2CCCC2)c1 [Example 42, (S)-N-(1-(4-(4-Chloro-3-(pyrrolidin-1-yl)benzyl)-3-methylpiperazine-1-carbonyl)-1H-pyrazol-3-yl)methanesulfonamide] | > 75 | inhibition at 1 µM [2]: > 75% |
| C[C@H]1C[C@@H](N(C)Cc2ccc(Cl)c(N3CC4COCC4C3)c2)CCN1C(=O)n1ccc(NS(C)(=O)=O)n1 (stereo partly drawn) [Example 194, N-(1-((2S,4S)-4-((4-chloro-3-(Tetrahydro-1H-furo[3,4-c]pyrrol-5(3H)-yl)benzyl)(methyl)amino)-2-methylpiperidine-1-carbonyl)-1H-pyrazol-3-yl)methanesulfonamide] | – | inhibition at 10 µM [1]: 50 to 75%; inhibition at 1 µM [2]: 0 to 25% |
| CC(=O)Nc1ccn(C(=O)N2CCN(Cc3ccc(-c4ccccc4)cc3C)C[C@@H]2C)n1 [Example 207, (S)-N-(1-(2-Methyl-4-((3-methyl-[1,1′-biphenyl]-4-yl)methyl)piperazine-1-carbonyl)-1H-pyrazol-3-yl)acetamide] | > 75 | – |
| CS(=O)(=O)Nc1ccn(C(=O)N2CCN(Cc3ccc(F)c(Oc4ccccc4)c3)CC2)n1 [Example 222, N-(1-(4-(4-Fluoro-3-phenoxy-benzyl)piperazine-1-carbonyl)-1H-pyrazol-3-yl)methane-sulfonamide] | > 75 | – |
| CS(=O)(=O)Nc1ccn(C(=O)N2CCN(Cc3ccc(F)c(OC(F)(F)F)c3)CC2)n1 [Example 218, N-(1-(4-(4-Fluoro-3-(trifluoromethoxy)benzyl)piperazine-1-carbonyl)-1H-pyrazol-3-yl)methane-sulfonamide] | > 75 | – |
| C[C@@H]1CN(C(=O)n2ccc(NS(C)(=O)=O)n2)CCN1Cc1ccc(Cl)c(N2CC[C@H](F)C2)c1 [Example 203, N-(1-((R)-4-(4-Chloro-3-((S)-3-fluoropyrrolidin-1-yl)benzyl)-3-methylpiperazine-1-carbonyl)-1H-pyrazol-3-yl)methanesulfonamide] | > 75 | – |
| C[C@@H]1CN(C(=O)n2ccc(NS(C)(=O)=O)n2)CCN1Cc1ccc(Cl)c(C2CCCC2)c1 [Example 215, (R)-N-(1-(4-(4-Chloro-3-cyclopentyl-benzyl)-3-methyl-piperazine-1-carbonyl)-1H-pyrazol-3-yl)methane-sulfonamide] | > 75 | – |
| CN(Cc1ccc(Cl)c(N2CCC(F)CC2)c1)C1CCN(C(=O)n2ccc(NS(C)(=O)=O)n2)CC1 [Example 206, N-(1-(4-((4-Chloro-3-(4-fluoropiperidin-1-yl)benzyl)(methyl)amino)piperidine-1-carbonyl)-1H-pyrazol-3-yl)methanesulfonamide] | > 75 | – |
| CS(=O)(=O)Nc1ccn(C(=O)N2CCC3(CCN(Cc4ccccc4)C3)CC2)n1 [Example 165, N-(1-(2-Benzyl-2,8-diazaspiro[4.5]decane-8-carbonyl)-1H-pyrazol-3-yl)methanesulfonamide] | – | inhibition at 10 µM [1]: > 75% |
| CC(=O)Nc1ccn(C(=O)N2CCC(C)(N(C)Cc3ccc(Cl)c(C)c3)CC2)n1 [Example 217, N-(1-(4-((4-Chloro-3-methylbenzyl) (methyl)amino)-4-methyl-piperidine-1-carbonyl)-1H-pyrazol-3-yl)acetamide] | > 75 | – |

Second part, led by results:

| inhibition at 1 µM [1] [%] | Structure (SMILES) | also measured |
| --- | --- | --- |
| > 75 | CC(C)C1CCN(c2cc(CN3CCN(C(=O)n4ccc(NS(C)(=O)=O)n4)CC3)ccc2Cl)CC1 [Example 213, N-(1-(4-(4-Chloro-3-(4-isopropyl-piperidin-1-yl)benzyl)piperazine-1-carbonyl)-1H-pyrazol-3-yl)methane-sulfonamide] | – |
| > 75 | CN(Cc1ccc(Cl)cc1N1CCOCC1)C1(C)CCN(C(=O)n2ccc(NS(C)(=O)=O)n2)CC1 [Example 198, N-(1-(4-((4-Chloro-2-morpholinobenzyl)(methyl)amino)-4-methylpiperidine-1-carbonyl)-1H-pyrazol-3-yl)methanesulfonamide] | inhibition at 1 µM [2]: 50 to 75% |
| > 75 | CS(=O)(=O)Nc1ccn(C(=O)N2CCC3(CCCN3Cc3ccc(Cl)c(N4CCCC4)c3)CC2)n1 [Example 195, N-(1-(1-(4-Chloro-3-(pyrrolidin-1-yl)benzyl)-1,8-diazaspiro[4.5]decane-8-carbonyl)-1H-pyrazol-3-yl)methanesulfonamide] | inhibition at 1 µM [2]: > 75% |
| > 75 | Cc1c(CN2CCN(C(=O)n3ccc(NS(C)(=O)=O)n3)CC2)cccc1C(F)(F)F [Example 220, N-(1-(4-(2-Methyl-3-(trifluoromethyl)benzyl)piperazine-1-carbonyl)-1H-pyrazol-3-yl)methane-sulfonamide] | – |
| > 75 | C[C@@H]1CN(C(=O)n2ccc(NS(C)(=O)=O)n2)CCN1Cc1ccc(Cl)c(N2CCC(F)(F)CC2)c1 [Example 201, (R)-N-(1-(4-(4-Chloro-3-(4,4-difluoropiperidin-1-yl)benzyl)-3-methylpiperazine-1-carbonyl)-1H-pyrazol-3-yl)methanesulfonamide] | inhibition at 1 µM [2]: > 75% |
| > 75 | C[C@H]1CN(C(=O)n2ccc(NS(C)(=O)=O)n2)CCN1Cc1ccc(C(F)(F)F)c(N2CCC(F)CC2)c1 [Example 187, (S)-N-(1-(4-(3-(4-Fluoropiperidin-1-yl)-4-(trifluoromethyl)benzyl)-3-methylpiperazine-1-carbonyl)-1H-pyrazol-3-yl)methanesulfonamide] | IC50 [1]: < 0.1 µM; inhibition at 1 µM [2]: > 75% |
| > 75 | CS(=O)(=O)Nc1ccn(C(=O)N2CCN(Cc3ccc(Cl)c(N4CCC(C#N)CC4)c3)CC2)n1 [Example 211, N-(1-(4-(4-Chloro-3-(4-cyano-piperidin-1-yl)benzyl)piperazine-1-carbonyl)-1H-pyrazol-3-yl)methane-sulfonamide] | – |
| > 75 | CS(=O)(=O)Nc1ccn(C(=O)N2CCC3(CCCN3Cc3ccc(Cl)cc3N3CCC(F)CC3)CC2)n1 [Example 204, N-(1-(1-(4-Chloro-2-(4-fluoropiperidin-1-yl)benzyl)-1,8-diazaspiro[4.5]decane-8-carbonyl)-1H-pyrazol-3-yl)methanesulfonamide] | – |
| > 75 | C[C@H]1CN(C(=O)n2ccc(NS(C)(=O)=O)n2)CCN1Cc1ccc(Cl)c(C2CCCC2)c1 [Example 216, (S)-N-(1-(4-(4-Chloro-3-cyclopentyl-benzyl)-3-methyl-piperazine-1-carbonyl)-1H-pyrazol-3-yl)methane-sulfonamide] | – |
| > 75 | CS(=O)(=O)Nc1ccn(C(=O)N2CCN(Cc3ccc(Cl)c(C(F)(F)F)c3)CC2)n1 [Example 214, N-(1-(4-(4-Chloro-3-(trifluoromethyl)benzyl)piperazine-1-carbonyl)-1H-pyrazol-3-yl)methane-sulfonamide] | – |
| > 75 | CS(=O)(=O)Nc1ccn(C(=O)N2CCN(Cc3ccc(Cl)c(F)c3)CC2)n1 [Example 212, N-(1-(4-(4-Chloro-3-fluorobenzyl)piperazine-1-carbonyl)-1H-pyrazol-3-yl)methane-sulfonamide] | – |
